The values below come from ChEMBL document CHEMBL1201862, “PubChem BioAssay data set” (2004).

A short description of test [1]: Luminescence-based counterscreen assay for KLF5 inhibitors: dose response cell-based high throughput screening assay to identify cytotoxic compounds using the IEC-6 intestinal epithelial cell line. [Related pubchem assays: 1700 (Primary screen.), 1834 (Confirmation screen.), 1858 (Summary AID.), 1905 (Counterscreen.)]. The format is functional. Background: The purpose of a counterscreen is to sort out artefacts and off-target activity.

Another test addresses Tumor necrosis factor (Homo sapiens, UniProt P01375). Kind of test: TNFa-triggered NF-kB activation inhibitors, SAR follow-up, cell-based, revised (AID 2337). It is filed as functional.
Test [2] concerns the target Induced myeloid leukemia cell differentiation protein Mcl-1 (Homo sapiens, UniProt Q07820). It is filed as functional.
Test [3] has as its target T1, COUP transcription factor 2 (Homo sapiens, UniProt P24468).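 Note: HEK293 cells transiently cotransfected with COUP-TFII expression vector and reporter; luciferase reporter luminescence driven by COUP-TFII from the pX2-168 reporter plasmid.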
T1 sequence (P24468 whole entry): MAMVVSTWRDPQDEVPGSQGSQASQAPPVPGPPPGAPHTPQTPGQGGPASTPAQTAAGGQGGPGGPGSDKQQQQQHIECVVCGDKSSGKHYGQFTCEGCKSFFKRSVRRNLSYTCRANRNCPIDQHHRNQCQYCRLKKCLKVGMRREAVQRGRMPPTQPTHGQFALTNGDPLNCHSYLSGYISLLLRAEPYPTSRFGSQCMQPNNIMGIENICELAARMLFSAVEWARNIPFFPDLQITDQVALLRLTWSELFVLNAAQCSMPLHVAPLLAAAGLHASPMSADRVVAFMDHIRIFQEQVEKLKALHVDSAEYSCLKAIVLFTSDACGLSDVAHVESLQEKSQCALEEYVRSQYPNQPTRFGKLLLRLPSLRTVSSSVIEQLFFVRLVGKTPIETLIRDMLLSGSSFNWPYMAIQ
Kind of test: Luminescence-based cell-based high throughput dose response assay to identify inhibitors of COUP-TFII (NR2F2). It is filed as functional.

For test [4], the target named is Nucleotide-binding oligomerization domain-containing protein 1 (Homo sapiens, UniProt Q9Y239). Kind of test: NOD1 signaling inhibitors, SAR follow-up, revised (AID 2333). It is filed as functional.
Nucleotide-binding oligomerization domain-containing protein 1, sequence (Q9Y239 whole entry, the tested form may be a part): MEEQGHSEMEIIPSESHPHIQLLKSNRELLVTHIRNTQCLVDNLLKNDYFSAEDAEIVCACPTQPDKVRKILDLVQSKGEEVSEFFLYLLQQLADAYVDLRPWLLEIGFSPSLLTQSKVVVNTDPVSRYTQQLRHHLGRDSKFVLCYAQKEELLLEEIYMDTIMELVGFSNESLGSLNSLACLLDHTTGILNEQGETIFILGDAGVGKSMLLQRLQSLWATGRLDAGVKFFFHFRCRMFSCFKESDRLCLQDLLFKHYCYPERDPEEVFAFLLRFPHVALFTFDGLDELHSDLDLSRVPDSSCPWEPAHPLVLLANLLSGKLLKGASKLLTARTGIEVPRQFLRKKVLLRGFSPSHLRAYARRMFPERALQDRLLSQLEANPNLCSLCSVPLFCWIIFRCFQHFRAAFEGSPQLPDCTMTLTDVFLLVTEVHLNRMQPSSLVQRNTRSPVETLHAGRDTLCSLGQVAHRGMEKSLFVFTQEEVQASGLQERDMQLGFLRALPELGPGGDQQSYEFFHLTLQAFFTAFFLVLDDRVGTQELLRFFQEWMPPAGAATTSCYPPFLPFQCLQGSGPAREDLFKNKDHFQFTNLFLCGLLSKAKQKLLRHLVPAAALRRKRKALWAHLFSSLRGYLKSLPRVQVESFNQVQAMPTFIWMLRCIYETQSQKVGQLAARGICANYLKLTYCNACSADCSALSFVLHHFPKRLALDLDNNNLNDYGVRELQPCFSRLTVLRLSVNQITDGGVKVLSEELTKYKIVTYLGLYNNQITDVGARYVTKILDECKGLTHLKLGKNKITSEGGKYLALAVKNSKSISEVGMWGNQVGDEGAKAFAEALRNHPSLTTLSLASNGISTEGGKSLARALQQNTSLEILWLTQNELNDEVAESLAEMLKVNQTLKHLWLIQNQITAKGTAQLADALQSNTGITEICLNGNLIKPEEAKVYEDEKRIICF
In test [5] the target is T2, Heat shock factor protein 1 (Mus musculus, UniProt P38532).
T2 sequence (P38532 whole entry): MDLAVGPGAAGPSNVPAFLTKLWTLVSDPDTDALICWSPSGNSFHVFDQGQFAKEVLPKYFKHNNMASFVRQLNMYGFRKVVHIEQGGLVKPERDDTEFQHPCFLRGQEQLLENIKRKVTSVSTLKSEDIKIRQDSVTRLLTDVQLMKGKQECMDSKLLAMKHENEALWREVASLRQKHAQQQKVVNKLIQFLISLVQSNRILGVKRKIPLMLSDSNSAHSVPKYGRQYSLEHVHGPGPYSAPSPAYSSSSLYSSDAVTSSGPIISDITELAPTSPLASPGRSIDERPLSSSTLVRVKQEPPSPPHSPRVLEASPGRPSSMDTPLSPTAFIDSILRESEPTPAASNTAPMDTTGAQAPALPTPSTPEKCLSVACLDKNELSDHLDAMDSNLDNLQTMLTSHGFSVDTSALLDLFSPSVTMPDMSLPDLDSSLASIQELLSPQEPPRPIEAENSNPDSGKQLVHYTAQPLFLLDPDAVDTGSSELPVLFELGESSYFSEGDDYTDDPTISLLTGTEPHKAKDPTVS
Kind of test: inhibition of MG132-induced HSE-luciferase signal, confirmation, cell-based, NIH3T3, luminescence, dose retest (AID 2382).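 Note: NIH3T3 fibroblasts with HSF1-driven luciferase reporter stressed by proteasome inhibitor MG132; luminescence from HSF1-driven luciferase expression after 8 hours of MG132 stress.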 It is filed as functional.

A further test has as its system HEK293. Kind of test: cells. The note with it: Homo sapiens.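 Note: cells exposed to compound for 14 hours overnight before viability readout.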
The target of test [6] is T3, Kappa-type opioid receptor (Homo sapiens, UniProt P41145). As to the kind of experiment: SAR analysis of Antagonists of the Kappa Opioid Receptor (KOR) using an Image-Based Assay - Set 2. [Related pubchem assays (depositor defined):AID1777, AID1785, AID1786, AID1966, AID2133, AID2136, AID2284, AID2285, AID2348]. It is filed as functional.
T3 sequence (P41145 whole entry): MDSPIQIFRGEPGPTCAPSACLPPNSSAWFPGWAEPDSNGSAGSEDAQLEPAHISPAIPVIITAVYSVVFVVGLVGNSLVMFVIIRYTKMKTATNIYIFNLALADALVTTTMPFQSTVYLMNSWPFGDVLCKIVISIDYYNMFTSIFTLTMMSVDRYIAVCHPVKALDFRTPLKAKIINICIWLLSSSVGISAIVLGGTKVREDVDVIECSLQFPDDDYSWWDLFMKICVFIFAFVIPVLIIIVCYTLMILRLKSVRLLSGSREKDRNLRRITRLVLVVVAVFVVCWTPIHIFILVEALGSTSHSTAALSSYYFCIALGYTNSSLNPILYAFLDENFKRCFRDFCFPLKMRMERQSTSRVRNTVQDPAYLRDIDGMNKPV
Test [7] addresses T4, Mu-type opioid receptor (Homo sapiens, UniProt P35372). Kind of test: SAR Analysis of Agonists of the MOR Receptor using an Image-Based Assay - Set 2. [Related pubchem assays (depositor defined):AID1777, AID1785, AID1786, AID1966, AID2133, AID2136, AID2284, AID2285, AID2352]. The format is functional.
Test [8] addresses T5, Delta-type opioid receptor (Homo sapiens, UniProt P41143). As to the kind of experiment: SAR Analysis of Antagonists of the DOR Receptor using an Image-Based Assay - Set 2. [Related pubchem assays (depositor defined):AID1777, AID1785, AID1786, AID1966, AID2133, AID2136, AID2284, AID2285, AID2357]. It is filed as functional.
In test [9] the target is T4, Mu-type opioid receptor. As to the kind of experiment: SAR Analysis of Antagonists of the MOR Receptor using an Image-Based Assay - Set 2. [Related pubchem assays (depositor defined):AID1777, AID1785, AID1786, AID1966, AID2133, AID2136, AID2284, AID2285, AID2420]. The format is functional.
Test [10] deals with T5, Delta-type opioid receptor. As to the kind of experiment: SAR Analysis of Agonists of the DOR Receptor using an Image-Based Assay - Set 2. [Related pubchem assays (depositor defined):AID1777, AID1785, AID1786, AID1966, AID2133, AID2136, AID2284, AID2285, AID2370]. It is filed as functional.
The target of test [11] is T3, Kappa-type opioid receptor. As to the kind of experiment: SAR analysis of Agonists of the Kappa Opioid Receptor (KOR) using an Image-Based Assay - Set 2. [Related pubchem assays (depositor defined):AID1777, AID1786, AID1966, AID2133, AID2136, AID2284, AID2285, AID2359]. The format is functional.
The target in test [12] is T3, Kappa-type opioid receptor. Kind of test: SAR analysis of small molecule agonists of the kappa opioid receptor via a luminescent beta-arrestin assay - Set 2. [Related pubchem assays (depositor defined):AID1777, AID1785, AID1786, AID1966, AID2133, AID2136, AID2284, AID449737]. The format is functional.

Active and inactive are the calls of the source. Unless noted, no cut-off for these calls is given here.

T4 sequence (P35372 whole entry): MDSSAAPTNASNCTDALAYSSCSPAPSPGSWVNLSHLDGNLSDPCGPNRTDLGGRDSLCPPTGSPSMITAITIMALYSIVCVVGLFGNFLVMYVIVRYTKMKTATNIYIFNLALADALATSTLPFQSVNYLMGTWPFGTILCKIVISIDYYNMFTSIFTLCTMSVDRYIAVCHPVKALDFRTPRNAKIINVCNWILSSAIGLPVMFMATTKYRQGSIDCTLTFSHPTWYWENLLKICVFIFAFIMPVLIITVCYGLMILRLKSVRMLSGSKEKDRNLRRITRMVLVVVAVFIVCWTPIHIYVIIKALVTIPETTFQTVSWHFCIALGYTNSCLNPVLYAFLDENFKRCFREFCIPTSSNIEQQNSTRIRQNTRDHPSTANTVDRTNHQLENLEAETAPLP
T5 sequence (P41143 whole entry): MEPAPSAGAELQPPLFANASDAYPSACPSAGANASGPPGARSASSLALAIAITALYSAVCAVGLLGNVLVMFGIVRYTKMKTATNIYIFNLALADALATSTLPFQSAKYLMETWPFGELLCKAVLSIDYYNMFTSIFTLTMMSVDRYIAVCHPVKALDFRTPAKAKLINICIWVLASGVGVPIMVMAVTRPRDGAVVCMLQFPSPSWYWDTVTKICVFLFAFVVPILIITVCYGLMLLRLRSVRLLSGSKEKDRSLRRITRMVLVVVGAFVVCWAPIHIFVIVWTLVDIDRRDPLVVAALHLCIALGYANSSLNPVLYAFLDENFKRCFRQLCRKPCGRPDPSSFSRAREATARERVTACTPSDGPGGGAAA
Tumor necrosis factor, sequence (P01375 whole entry): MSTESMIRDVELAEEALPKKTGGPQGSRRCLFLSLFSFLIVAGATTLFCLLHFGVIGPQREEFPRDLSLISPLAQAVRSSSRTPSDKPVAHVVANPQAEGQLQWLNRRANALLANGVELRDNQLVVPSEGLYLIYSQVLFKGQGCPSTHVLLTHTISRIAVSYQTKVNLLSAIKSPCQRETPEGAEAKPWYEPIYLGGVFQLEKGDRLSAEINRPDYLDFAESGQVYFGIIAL
Induced myeloid leukemia cell differentiation protein Mcl-1, sequence (Q07820 whole entry): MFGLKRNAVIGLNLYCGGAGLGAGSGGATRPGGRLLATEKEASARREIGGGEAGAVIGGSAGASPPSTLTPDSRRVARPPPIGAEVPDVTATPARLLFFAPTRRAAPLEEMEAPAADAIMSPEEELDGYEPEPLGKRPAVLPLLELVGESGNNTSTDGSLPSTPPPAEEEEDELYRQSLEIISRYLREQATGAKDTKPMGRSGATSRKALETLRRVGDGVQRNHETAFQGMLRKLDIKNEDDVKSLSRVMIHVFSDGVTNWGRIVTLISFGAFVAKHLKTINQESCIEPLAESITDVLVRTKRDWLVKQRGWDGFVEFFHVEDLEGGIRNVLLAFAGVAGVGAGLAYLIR

By IC50 is commonly meant the concentration that gives 50% inhibition. The EC50 is the concentration at which the effect is half-maximal. `COC(=O)c1ccc2nc(Nc3nc4ccc(F)cc4s3)sc2c1`: the IC50 in test [1] was > 39.8 µM (not active); on Tumor necrosis factor, 0.462 µM (active); in test [2] it was 1.11 µM (active); in [3], 34 µM (inactive); in test [4], 1.91 µM (active); with HEK293, > 20 µM (inactive). For the same compound, the EC50 in test [5] is < 0.16 µM (active).
Take `CCc1ccc(S(=O)(=O)NCc2ccc(C(=O)NCCN(Cc3ccccc3)C(C)C)cc2)cc1`: the IC50 was 2.55 µM (active) in test [6], > 32 µM (inactive) in [8] and > 32 µM (inactive) on Mu-type opioid receptor [9]. Besides, the EC50 on Mu-type opioid receptor [7] was > 32 µM (inactive); in [10], > 32 µM (inactive); in test [11], > 32 µM (inactive); in test [12] it was > 20 µM (inactive).
